This is an account of results in patent publication US20120156242A1 (priority 2009, published 2012).

Experiment [1] relates to monoclonal antibody D-1. Nature of the experiment: Inhibition by synthetic peptides of the neutralization activity of D-1. The settings on record: D-1 and influenza A virus incubated with synthetic peptide. It counts as cell-based, human.
For experiment [2] the following is noted: in vivo; for eliciting of antibody (antibody titer of rabbit immune serum against the peptide): sc.

For the sequence NIPSRISIYWTIVKPGD [peptide 2], the neutralization inhibition rate result in experiment [1] is reported as “about 20%”. Moreover, the “eliciting of antibody (antibody titer of rabbit immune serum against the peptide)” value in experiment [2] is “could elicit the antibody in rabbit”.
In the case of TMPNNEKFDKLYIWGVHHPGT [peptide 1], the neutralization inhibition rate result in experiment [1] is on record as “about 50%”. Besides, in experiment [2], the “eliciting of antibody (antibody titer of rabbit immune serum against the peptide)” value was “could elicit the antibody in rabbit”. Also, the antigenicity result in experiment [2] (rabbit) is “high antigenicity compared with the lower region peptide”.
